According to PubChem BioAssay (NCI):
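Following 48 hours of exposure in 96-well plates, responses at five concentrations were used to interpolate endpoints linearly. At the TGI there is no net growth.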 The source made the active and inactive calls. Rule as the data show it: active = GI50 below about 0.43 µM; inactive = the rest.

Legend:
Assay in all cases: NCI-60 cell line screen, 48 h
[1] = tested on: 786-0 renal
[2] = tested on: A498 renal
[3] = tested on: A549 NSCLC
[4] = tested on: ACHN renal
[5] = tested on: CAKI-1 renal
[6] = tested on: CCRF-CEM leukemia
[7] = tested on: COLO 205 colon
[8] = tested on: DLD-1 colon
[9] = tested on: DMS 114 small cell lung
[10] = tested on: DMS 273 small cell lung
[11] = tested on: DU-145 prostate
[12] = tested on: EKVX NSCLC
[13] = tested on: HCC-2998 colon
[14] = tested on: HCT-116 colon
[15] = tested on: HCT-15 colon
[16] = tested on: HL-60(TB) leukemia
[17] = tested on: HOP-62 NSCLC
[18] = tested on: HOP-92 NSCLC
[19] = tested on: HT29 colon
[20] = tested on: IGROV1 ovarian
[21] = tested on: K-562 leukemia
[22] = tested on: KM12 colon
[23] = tested on: KM20L2 colon
[24] = tested on: LOX IMVI melanoma
[25] = tested on: LXFL 529 NSCLC
[26] = tested on: M14 melanoma
[27] = tested on: M19-MEL melanoma
[28] = tested on: MALME-3M melanoma
[29] = tested on: MCF7 breast
[30] = tested on: MDA-MB-231 breast
[31] = tested on: MDA-MB-435
[32] = tested on: MDA-N
[33] = tested on: MOLT-4 leukemia
[34] = tested on: NCI-H226 lung
[35] = tested on: NCI-H23 lung
[36] = tested on: NCI-H460 lung
[37] = tested on: NCI-H522 lung
[38] = tested on: NCI/ADR-RES ovarian
[39] = tested on: OVCAR-3 ovarian
[40] = tested on: OVCAR-4 ovarian
[41] = tested on: OVCAR-5 ovarian
[42] = tested on: OVCAR-8 ovarian
[43] = tested on: PC-3 prostate
[44] = tested on: RPMI-8226 leukemia
[45] = tested on: RXF 393 renal
[46] = tested on: SF-268 CNS
[47] = tested on: SF-295 CNS
[48] = tested on: SF-539 CNS
[49] = tested on: SK-MEL-2 melanoma
[50] = tested on: SK-MEL-28 melanoma
[51] = tested on: SK-MEL-5 melanoma
[52] = tested on: SK-OV-3 ovarian
[53] = tested on: SN12C renal
[54] = tested on: SNB-19 CNS
[55] = tested on: SNB-75 CNS
[56] = tested on: SNB-78 CNS
[57] = tested on: SR leukemia
[58] = tested on: SW-620 colon
[59] = tested on: T-47D breast
[60] = tested on: TK-10 renal
[61] = tested on: U251 CNS
[62] = tested on: UACC-257 melanoma
[63] = tested on: UACC-62 melanoma
[64] = tested on: UO-31 renal
[65] = tested on: BT-549 breast
[66] = tested on: HOP-18 NSCLC
[67] = tested on: HS 578T breast

Compound: Nc1ncnc2c1ncn2C1CC(O)C(CO)O1 (centres undefined)
- TGI [1]: > 100 µM
- TGI [2]: > 100 µM
- TGI [3]: > 100 µM
- TGI [4]: > 100 µM
- TGI [5]: > 100 µM
- TGI [6]: > 100 µM
- TGI [7]: > 100 µM
- TGI [8]: > 100 µM
- TGI [9]: > 100 µM
- TGI [10]: > 100 µM
- TGI [11]: > 100 µM
- TGI [12]: > 100 µM
- TGI [13]: > 100 µM
- TGI [14]: > 100 µM
- TGI [15]: > 100 µM
- TGI [16]: > 100 µM
- TGI [17]: > 100 µM
- TGI [18]: > 100 µM
- TGI [19]: > 100 µM
- TGI [20]: > 100 µM
- TGI [21]: > 100 µM
- TGI [22]: > 100 µM
- TGI [23]: > 100 µM
- TGI [24]: > 100 µM
- TGI [25]: > 100 µM
- TGI [26]: > 100 µM
- TGI [27]: > 100 µM
- TGI [28]: > 100 µM
- TGI [29]: > 100 µM
- TGI [30]: > 100 µM
- TGI [31]: > 100 µM
- TGI [32]: > 100 µM
- TGI [33]: > 100 µM
- TGI [34]: > 100 µM
- TGI [35]: > 100 µM
- TGI [36]: > 100 µM
- TGI [37]: > 100 µM
- TGI [38]: > 100 µM
- TGI [39]: > 100 µM
- TGI [40]: > 100 µM
- TGI [41]: > 100 µM
- TGI [42]: > 100 µM
- TGI [43]: > 100 µM
- TGI [44]: > 100 µM
- TGI [45]: > 100 µM
- TGI [46]: > 100 µM
- TGI [47]: > 100 µM
- TGI [48]: > 100 µM
- TGI [49]: > 100 µM
- TGI [50]: > 100 µM
- TGI [51]: > 100 µM
- TGI [52]: > 100 µM
- TGI [53]: > 100 µM
- TGI [54]: > 100 µM
- TGI [55]: > 100 µM
- TGI [56]: > 100 µM
- TGI [57]: > 100 µM
- TGI [58]: > 100 µM
- TGI [59]: > 100 µM
- TGI [60]: > 100 µM
- TGI [61]: > 100 µM
- TGI [62]: > 100 µM
- TGI [63]: > 100 µM
- TGI [64]: > 100 µM

Compound: O=C1CC2CC(O1)[C@H]1O[C@H]1C2 (some centres undefined)
- outcome [1]: inactive
- outcome [3]: inactive
- outcome [4]: inactive
- outcome [5]: inactive
- outcome [6]: inactive
- outcome [7]: inactive
- outcome [8]: inactive
- outcome [9]: inactive
- outcome [10]: inactive
- outcome [12]: inactive
- outcome [13]: inactive
- outcome [14]: inactive
- outcome [15]: inactive
- outcome [16]: inactive
- outcome [17]: inactive
- outcome [18]: inactive
- outcome [19]: inactive
- outcome [20]: inactive
- outcome [21]: inactive
- outcome [22]: inactive
- outcome [23]: inactive
- outcome [24]: inactive
- outcome [25]: inactive
- outcome [26]: inactive
- outcome [27]: inactive
- outcome [28]: inactive
- outcome [33]: inactive
- outcome [34]: inactive
- outcome [35]: inactive
- outcome [36]: inactive
- outcome [37]: inactive
- outcome [39]: inactive
- outcome [40]: inactive
- outcome [41]: inactive
- outcome [42]: inactive
- outcome [44]: inactive
- outcome [45]: inactive
- outcome [46]: inactive
- outcome [47]: inactive
- outcome [48]: inactive
- outcome [49]: inactive
- outcome [52]: inactive
- outcome [53]: inactive
- outcome [54]: inactive
- outcome [55]: inactive
- outcome [56]: inactive
- outcome [57]: inactive
- outcome [58]: inactive
- outcome [61]: inactive
- outcome [62]: inactive
- outcome [63]: inactive
- outcome [64]: inactive

Compound: COc1ccc(/C=N/N/C(O)=c2/sc(=C(C#N)C#N)n(-c3ccccc3)c2=N)cc1
- TGI [1]: > 100 µM
- TGI [2]: > 100 µM
- TGI [3]: > 100 µM
- TGI [4]: > 100 µM
- TGI [65]: > 100 µM
- TGI [6]: > 100 µM
- TGI [7]: > 100 µM
- TGI [8]: > 100 µM
- TGI [11]: > 100 µM
- TGI [12]: > 100 µM
- TGI [13]: > 100 µM
- TGI [14]: > 100 µM
- TGI [15]: > 100 µM
- TGI [16]: > 100 µM
- TGI [66]: > 100 µM
- TGI [17]: > 94 µM
- TGI [18]: > 70.8 µM
- TGI [67]: > 100 µM
- TGI [19]: > 100 µM
- TGI [20]: > 100 µM
- TGI [21]: > 100 µM
- TGI [22]: > 100 µM
- TGI [25]: > 100 µM
- TGI [26]: > 100 µM
- TGI [27]: > 100 µM
- TGI [28]: > 100 µM
- TGI [29]: > 100 µM
- TGI [30]: > 100 µM
- TGI [31]: > 100 µM
- TGI [32]: > 100 µM
- TGI [33]: > 100 µM
- TGI [34]: > 100 µM
- TGI [35]: > 100 µM
- TGI [36]: > 100 µM
- TGI [37]: > 100 µM
- TGI [38]: > 100 µM
- TGI [39]: > 100 µM
- TGI [40]: > 100 µM
- TGI [41]: > 100 µM
- TGI [42]: > 100 µM
- TGI [43]: > 100 µM
- TGI [44]: > 100 µM
- TGI [46]: > 100 µM
- TGI [47]: > 70.5 µM
- TGI [48]: > 88.6 µM
- TGI [50]: > 100 µM
- TGI [51]: > 100 µM
- TGI [52]: > 100 µM
- TGI [53]: > 100 µM
- TGI [54]: > 100 µM
- TGI [55]: 38.3 µM
- TGI [57]: > 100 µM
- TGI [58]: > 100 µM
- TGI [60]: > 100 µM
- TGI [61]: > 100 µM
- TGI [62]: > 100 µM
- TGI [63]: > 100 µM
- TGI [64]: > 100 µM
